Experimental data from US5599793A, “Antithromobotic agents” (Eli Lilly and Company, priority 1995, dated 1997).

Assays:
[1] = target: T1, t-PA (Homo sapiens, UniProt P00750); test: Serine protease selectivity, chromogenic substrate (Kass), t-PA; assay type: biochemical; conditions: substrate H-D-Ile-Pro-Arg-p-nitroanilide
T1 construct: purchased American Diagnostica, Greenwich, Conn
Procedure: (§1) The assay is carried out by mixing 50 μL buffer (0.03M Tris, 0.15M NaCl, pH 7.4) with 25 μL of bovine thrombin or human thrombin solution (0.21 mg/mL of thrombostat bovine thrombin, Parke-Davis, or purified human thrombin, Enzyme Research Laboratories, South Bend, Ind., at about 8 NIH units/mL, in the same buffer) and 25 μL of test compound in a solvent (in 50% aqueous methanol, v:v). The 150 μL of an aqueous solution of the chromogenic substrate (at 0.25 mg/mL) are added and the rates of hydrolysis of the substrate are measured by monitoring the reactions at 405 nm for the release of p-nitroaniline. Standard curves are constructed by plotting free thrombin concentration against hydrolysis rate. The hydrolysis rates observed with test compounds are then converted to "free thrombin" values in the respective assays by use of the standard curves. The bound thrombin (bound to test compound) is calculated by subtracting the amount of free thrombin observed in each assay from the known initial amount of thrombin used in the assay. The amount of free inhibitor in each assay is calculated by subtracting the number of moles of bound thrombin from the number of moles of added inhibitor (test compound).
(§2) Kass is calculated for a range of concentrations of test compounds and the mean value is reported in units of liter per mole.
(§3) By substantially following the procedures described above for human thrombin, and using other human blood coagulation system serine proteases and proteases of the fibrinolytic system with the appropriate chromogenic substrates, identified below, selectivity of the compounds of the present invention with respect to the coagulation factor serine proteases and with respect to the fibrinolytic system serine proteases are evaluated as well as their substantial lack of interference with serine proteases of the fibrinolytic system. Thrombin inhibitors preferably should spare fibrinolysis induced by urokinase, tissue plasminogen activator (t-PA) and streptokinase. This would be important to the therapeutic use of such agents as an adjunct to streptokinase, t-PA or urokinase thrombolytic therapy and to the use of such agents as an endogenous fibrinolysis-sparing (with respect to t-PA and urokinase) antithrombotic agent. In addition to the lack of interference with the amidase activity of the fibrinolytic proteases, such fibrinolytic system sparing can be studied by the use of human plasma clots and their lysis by the respective fibrinolytic plasminogen activators.
(§4) Human plasmin is purchased from Boehringer Mannheim, Indianapolis, Ind.; nt-PA is purchased as single chain activity reference from American Diagnostica, Greenwich, Conn.; modified-t-PA6 (mt-PA6) is prepared at Eli Lilly and Company by procedure known in the art (See, Burck, et al., J. Biol. Chem., 265, […] (1990). Plasmin chromogenic substrate H-D-Val-Leu-Lys-p-nitroanilide and tissue plasminogen activator (t-PA) substrate H-D-Ile-Pro-Arg-p-nitroanilide are purchased from Kabi Vitrum, Stockholm, Sweden.

[2] = system: Human plasma; test: Human plasma anticoagulation, activated partial thromboplastin time (APTT); assay type: biochemical; conditions: concentration required to double the APTT, linear extrapolation
Procedure: (§5) Dog plasma and rat plasma is obtained from conscious mixed-breed hounds (either sex, Hazelton-LRE, Kalamazoo, Mich., U.S.A.) or from anesthetized male Sprague-Dawley rats (Harlan Sprague-Dawley, Inc., Indianapolis, Ind., U.S.A.) by venipuncture into 3.8 percent citrate. Fibrinogen is prepared from in-date ACD human blood as the fraction I-2 according to previous procedures and specifications. Smith, Biochem. J., 185, 1-11 (1980); and Smith, et al., Biochemistry, 11, 2958-2967 (1972). Human fibrinogen is also purchased as 98 percent pure/plasmin free from American Diagnostica, Greenwich, Conn. Coagulation reagents ACTIN, Thromboplastin, and Human plasma are from Baxter Healthcare Corp., Dade Division, Miami, Fla. Bovine thrombin from Parke-Davis ([…], Mich.) is used for coagulation assays in plasma.
(§6) Coagulation assay procedures are as previously described. Smith, et al., Thrombosis Research, 50, 163-174 (1988). A CoAScreener coagulation instrument (American LABor, Inc.) is used for all coagulation assay measurements. The prothrombin time (PT) is measured by adding 0.05 mL saline and 0.05 mL Thromboplastin-C reagent to 0.05 mL test plasma. The activated partial thromboplastin time (APTT) is measured by incubation of 0.05 mL test plasma with 0.05 mL Actin reagent for 120 seconds followed by 0.05 mL CaCl2 (0.02M). The thrombin time (TT) is measured by adding 0.05 mL saline and 0.05 mL thrombin (10 NIH units/mL) to 0.05 mL test plasma. The compounds of formula I are added to human or animal plasma over a wide range of concentrations to determine prolongation effects on the APTT, PT, and TT assays. Linear extrapolations are performed to estimate the concentrations required to double the clotting time for each assay.

[3] = system: Human plasma; test: Human plasma anticoagulation, thrombin time (TT); assay type: biochemical; conditions: concentration required to double the thrombin time, linear extrapolation
Procedure: as §5, §6

[4] = system: Human plasma; test: Human plasma anticoagulation, prothrombin time (PT); assay type: biochemical; conditions: concentration required to double the PT, linear extrapolation
Procedure: as §5, §6

[5] = target: T2, Plasmin (Homo sapiens, UniProt P00747); test: Serine protease selectivity, chromogenic substrate (Kass), plasmin; assay type: biochemical; conditions: substrate H-D-Val-Leu-Lys-p-nitroanilide
T2 construct: Human plasmin is purchased; purchased Boehringer Mannheim, Indianapolis, Ind
Procedure: as §1, §2, §3, §4

[6] = target: T3, Trypsin (Bos taurus, UniProt P00760); test: Serine protease selectivity, chromogenic substrate (Kass), trypsin; assay type: biochemical, bovine; conditions: substrate N-Benzoyl-Phe-Val-Arg-p-nitroanilide
T3 construct: Bovine trypsin is purchased; purchased Worthington Biochemicals, Freehold, N.J
T3 sequence (P00760 24-246): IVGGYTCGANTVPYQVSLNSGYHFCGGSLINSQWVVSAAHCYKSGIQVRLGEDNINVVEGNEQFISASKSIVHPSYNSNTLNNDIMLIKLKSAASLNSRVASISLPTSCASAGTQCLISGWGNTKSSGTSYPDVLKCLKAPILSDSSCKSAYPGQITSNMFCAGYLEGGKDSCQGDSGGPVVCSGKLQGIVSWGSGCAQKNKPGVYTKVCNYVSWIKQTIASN
Procedure: as §1, §2, §3
(§7) Human factors X, Xa, IXa, XIa, and XIIa are purchased from Enzyme Research Laboratories, South Bend, Ind.; human urokinase from Leo Pharmaceuticals, Denmark; and recombinant activated Protein C (aPC) is prepared at Eli Lilly and Co. substantially according to U.S. Pat. No. 4,981,952. Chromogenic substrates: N-Benzoyl-Ile-Glu-Gly-Arg-p-nitroanilide (for factor Xa); N-Cbz-D-Arg-Gly-Arg-p-nitroanilide (for factor IXa assay as the factor Xa substrate); Pyroglutamyl-Pro-Arg-p-nitroanilide (for Factor XIa and for aPC); H-D-Pro-Phe-Arg-p-nitroanilide (for factor XIIa); and Pyroglutamyl-Gly-Arg-p-nitroanilide (for urokinase); are purchased from KabiVitrum, Stockholm, Sweden, or from Midwest Biotech, Fishers, Ind. Bovine trypsin is purchased from Worthington Biochemicals, Freehold, N.J., and human plasma kallikrein from Kabi Vitrum, Stockholm, Sweden. Chromogenic substrate H-D-Pro-Phe-Arg-p-nitroanilide for plasma kallikrein is purchased from Kabi Vitrum, Stockholm, Sweden. N-Benzoyl-Phe-Val-Arg-p-nitroanilide, the substrate for human thrombin and for trypsin, is synthesized according to procedures described above for the compounds of the present invention, using known methods of peptide coupling from commercially available reactants or purchased from Midwest Biotech, Fishers, Ind.

[7] = target: T4, factor Xa (Homo sapiens, UniProt P00742); test: Serine protease selectivity, chromogenic substrate (Kass), factor Xa; assay type: biochemical; conditions: substrate N-Benzoyl-Ile-Glu-Gly-Arg-p-nitroanilide
T4 construct: Human factors X, Xa, IXa, XIa, and XIIa are purchased; purchased Enzyme Research Laboratories, South Bend, Ind
Procedure: as §1, §2, §3, §7

[8] = target: Human Thrombin (Homo sapiens, UniProt P00734); test: Inhibition of amidase activity of thrombin (Kass); assay type: biochemical; conditions: apparent association constant, mean over a range of concentrations
Procedure: as §1
The Kass value is the hypothetical equilibrium constant for the reaction between thrombin and the test compound (I). [drawing 54]
as §2

T4 sequence (P00742 235-488 limits assumed): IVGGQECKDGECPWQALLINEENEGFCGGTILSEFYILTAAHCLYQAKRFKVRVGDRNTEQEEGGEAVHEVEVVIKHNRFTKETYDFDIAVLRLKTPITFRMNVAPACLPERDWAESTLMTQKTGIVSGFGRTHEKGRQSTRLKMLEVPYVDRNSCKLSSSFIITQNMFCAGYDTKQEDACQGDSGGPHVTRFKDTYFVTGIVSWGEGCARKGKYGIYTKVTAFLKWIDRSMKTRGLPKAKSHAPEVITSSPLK
T4 sequence (P00742 41-179 partner limits assumed): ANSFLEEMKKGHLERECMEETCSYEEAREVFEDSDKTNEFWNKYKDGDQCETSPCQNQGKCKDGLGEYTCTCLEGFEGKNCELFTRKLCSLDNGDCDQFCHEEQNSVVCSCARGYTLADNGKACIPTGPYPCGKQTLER
T1 sequence (P00750 36-562): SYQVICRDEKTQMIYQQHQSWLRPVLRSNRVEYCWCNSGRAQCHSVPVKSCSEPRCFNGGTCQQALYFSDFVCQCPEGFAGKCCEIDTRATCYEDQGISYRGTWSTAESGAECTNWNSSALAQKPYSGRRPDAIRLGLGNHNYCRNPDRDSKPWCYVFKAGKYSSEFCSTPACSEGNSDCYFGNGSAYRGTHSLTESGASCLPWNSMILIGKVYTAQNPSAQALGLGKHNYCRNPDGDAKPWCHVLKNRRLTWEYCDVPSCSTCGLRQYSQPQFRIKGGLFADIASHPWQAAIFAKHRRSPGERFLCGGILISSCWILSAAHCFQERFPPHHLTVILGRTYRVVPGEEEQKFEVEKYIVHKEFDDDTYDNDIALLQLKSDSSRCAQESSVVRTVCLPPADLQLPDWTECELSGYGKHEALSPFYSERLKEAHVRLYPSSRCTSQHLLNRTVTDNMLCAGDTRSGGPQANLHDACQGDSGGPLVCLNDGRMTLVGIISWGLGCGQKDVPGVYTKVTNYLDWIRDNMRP
T2 sequence (P00747 581-810 limits assumed): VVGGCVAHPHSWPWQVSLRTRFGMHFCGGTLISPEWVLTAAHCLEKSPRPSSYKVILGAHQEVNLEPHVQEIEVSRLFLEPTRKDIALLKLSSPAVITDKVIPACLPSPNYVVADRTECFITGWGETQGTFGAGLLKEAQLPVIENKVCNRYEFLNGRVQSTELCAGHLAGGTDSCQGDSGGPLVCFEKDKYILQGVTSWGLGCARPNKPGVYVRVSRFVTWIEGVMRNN
T2 sequence (P00747 97-580 partner limits assumed): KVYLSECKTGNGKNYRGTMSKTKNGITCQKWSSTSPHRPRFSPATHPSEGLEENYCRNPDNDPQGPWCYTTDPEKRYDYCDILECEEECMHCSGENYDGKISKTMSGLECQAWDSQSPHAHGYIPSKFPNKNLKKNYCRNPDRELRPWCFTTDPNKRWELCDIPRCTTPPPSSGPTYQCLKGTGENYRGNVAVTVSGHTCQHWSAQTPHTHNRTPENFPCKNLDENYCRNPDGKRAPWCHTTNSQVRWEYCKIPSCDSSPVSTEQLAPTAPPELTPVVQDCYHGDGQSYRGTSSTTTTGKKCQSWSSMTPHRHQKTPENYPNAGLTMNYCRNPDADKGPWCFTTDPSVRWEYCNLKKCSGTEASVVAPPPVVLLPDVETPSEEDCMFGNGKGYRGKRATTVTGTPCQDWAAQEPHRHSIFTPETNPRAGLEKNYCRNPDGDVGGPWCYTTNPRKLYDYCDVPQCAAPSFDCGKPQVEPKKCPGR

Row | Enzyme Kass, t-PA [1] [L/mol × 10^6] | Enzyme Kass, Plasmin [5] [L/mol × 10^6] | Enzyme Kass, Trypsin [6] | Enzyme Kass, Xa [7] [L/mol × 10^6] | Enzyme Kass, Human Thrombin [8] [L/mol × 10^6] | SMILES | 2x Clotting time, APTT [2] | 2x Clotting time, TT [3] | 2x Clotting time, PT [4]
1 | – | 14.0 | 633 L/mol × 10^6 | 11.6 | 5.4 | CC(C)CC[C@H]1C[C@@H](C(=O)N[C@H](C=O)CCCNC(=N)N)N(C(=O)[C@H]2CC3CCCCC3CN2)C1.Cl.Cl (relative stereo) [Example 27, D-3-cis-Piq-Pro(4-cis-isoamyl)-ArgH.2 HCl] | 395 ng/mL | 116 ng/mL | 1,232 ng/mL
2 | – | 0.27 | 20.30 L/mol × 10^6 | 0.14 | 0.41 | CC(C)CC[C@H]1C[C@@H](C(=O)N[C@H](C=O)CCCNC(=N)N)N(C(=O)C2NCCC3CCCCC32)C1.Cl.Cl (relative stereo) [Example 28, 1-Piq-Pro(4-cis-isoamyl)-ArgH.2 HCl] | 22,727 ng/mL | 3,637 ng/mL | 43,401 ng/mL
3 | – | 11.3 | 718 L/mol × 10^6 | 2.53 | 15.6 | Cl.Cl.NC(N)=NCCCC(C=O)NC(=O)C1CC(Oc2ccccc2)CN1C(=O)C1CC2CCCCC2CN1 [Example 26, D-3-cis-Piq-Pro(4-cis-phenoxy)-ArgH.2 HCl] | 392 ng/mL | 82 ng/mL | 1,322 ng/mL

Further lines, the molecule ahead of its results:

Row | SMILES | Enzyme Kass, t-PA [1] [L/mol × 10^6] | Enzyme Kass, Plasmin [5] [L/mol × 10^6] | Enzyme Kass, Trypsin [6] | Enzyme Kass, Xa [7] [L/mol × 10^6] | Enzyme Kass, Human Thrombin [8] [L/mol × 10^6] | 2x Clotting time, APTT [2] | 2x Clotting time, TT [3] | 2x Clotting time, PT [4]
4 | CC(C)CC[C@H]1C[C@@H](C(=O)N[C@H](C=O)CCCNC(=N)N)N(C(=O)[C@H]2CCCCN2)C1.Cl.Cl (relative stereo) [Example 4, D-homoprolyl-L-cis-4-isoamyl-prolyl-L-argininal dihydrochloride] | 0.19 | 2.0 | 77 L/mol × 10^6 | 7.9 | 8.2 | 630 ng/mL | 130 ng/mL | 3,100 ng/mL
5 | Cl.Cl.N=C(N)NCCC[C@@H](C=O)NC(=O)[C@@H]1C[C@H](c2ccccc2)CN1C(=O)[C@H]1CCCCN1 (relative stereo) [Example 6, D-hPro-Pro(4-cis-phenyl)-ArgH.2 HCl] | 0.065 | 5.3 | 240 L/mol × 10^6 | 5.7 | 2.9 | 840 ng/mL | 340 ng/mL | 4,100 ng/mL
6 | CC(=O)Nc1ccc(O[C@H]2C[C@@H](C(=O)N[C@H](C=O)CCCNC(=N)N)N(C(=O)[C@H]3CCCCN3)C2)cc1.Cl.Cl (relative stereo) [Example 10, D-hPro-Pro(4-cis-(4-AcNH-phenoxy))-ArgH.2 HCl] | 0.027 | 3.4 | 63 L/mol × 10^6 | 0.59 | 3.0 | 2,200 ng/mL | 480 ng/mL | 10,000 ng/mL
7 | CC(=O)Nc1cccc(O[C@H]2C[C@@H](C(=O)N[C@H](C=O)CCCNC(=N)N)N(C(=O)[C@H]3CCCCN3)C2)c1.Cl.Cl (relative stereo) [Example 12, D-hPro-Pro(4-cis-(3-AcNH-phenoxy))-ArgH.2 HCl] | 0.015 | 1.1 | 56 L/mol × 10^6 | 1.2 | 6.1 | 1,300 ng/mL | 210 ng/mL | 4,100 ng/mL
8 | Cl.Cl.N=C(N)NCCC[C@@H](C=O)NC(=O)[C@@H]1C[C@H](Oc2cccc(N)c2)CN1C(=O)[C@H]1CCCCN1 (relative stereo) [Example 13, D-hPro-Pro(4-cis-(3-NH2-phenoxy))-ArgH.2 HCl] | 0.033 | 0.65 | 22 L/mol × 10^6 | 0.58 | 2.1 | 2,900 ng/mL | 490 ng/mL | 9,100 ng/mL
9 | Cl.Cl.N=C(N)NCCCC(C=O)NC(=O)C1CC2CCCCC2N1C(=O)C1CC2CCCCC2CN1 [Example 25, D-3-cis-Piq-cis-Ohi-ArgH.2 HCl] | – | 12.4 | 1,040 L/mol × 10^6 | 0.67 | 82 | 548 ng/mL | 25 ng/mL | 1,232 ng/mL
